Experimental data from patent US8669249B2, “Poly (ADP-ribose) polymerase (PARP) inhibitors” (Takeda Pharmaceutical Company Limited, priority 2009, dated 2014).

Tests used:
Jurkat cell line = test: PARP cellular chemopotentiation assay (MTS, with/without TMZ); assay type: cell-based; conditions: Chemopotentiation factor: ratio of EC50 values of Jurkat cells co-treated without and with 100 μM TMZ; 96 hours
Summary of the method: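 Jurkat cells, 10,000/well, pre-cultured 24 h, then treated 96 h with serial compound dilutions (0.5% DMSO) with or without 100 μM TMZ. Viability by MTS conversion (OD490), normalized to DMSO controls; EC50 from curve fits, PF50 = EC50 without TMZ / EC50 with TMZ.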

[1] = target: T1, catalytic domain of Human PARP (Homo sapiens, UniProt P09874); test: Biacore surface plasmon resonance affinity assay; assay type: binding; conditions: pKD=-log10 KD, KD in mol/L; Biacore T100, 25° C.; read-out: pKD (converted)
T1 construct: The catalytic domain of Human PARP was cloned and prepared; made in house
Summary of the method: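 Binding at 25° C on Biacore T100: 1 min compound association then 5 min dissociation (50 μL/min) over immobilized PARP catalytic domain, buffer HBS-P plus 1% DMSO, 0.5 mM TCEP, 5 mM MgCl2, 2-fold dilution series. KD derived as koff/kon from fitted association and dissociation phases.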

PARP = target: T2, PARP (Homo sapiens, UniProt P09874); test: PARP ELISA (ELISA-based colorimetric PARP/Apoptosis Assay kit, Trevigen); assay type: biochemical; conditions: pIC50=-log10 IC50, IC50 in mol/L; inhibition of PARP catalytic activity
T2 construct: purchased Trevigen 4684-096-K HT (kit); 4684-096-01 (PARP enzyme)
Summary of the method: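 Quenched after 10 min catalysis by aspiration and four PBS/0.1% Triton X-100 washes. Poly(ADP-ribose) detected with mouse anti-PAR monoclonal antibody, goat anti-mouse IgG-HRP and HRP substrate; colorimetric signal proportional to PARP catalytic activity.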

T1 sequence (P09874 788-1014 limits assumed): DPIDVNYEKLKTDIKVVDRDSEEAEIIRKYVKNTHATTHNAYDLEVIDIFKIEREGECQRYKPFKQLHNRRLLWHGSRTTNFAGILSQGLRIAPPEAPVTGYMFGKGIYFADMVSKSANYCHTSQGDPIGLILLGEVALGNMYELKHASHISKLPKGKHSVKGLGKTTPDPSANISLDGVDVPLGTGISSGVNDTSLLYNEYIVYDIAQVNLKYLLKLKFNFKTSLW
T2 sequence (P09874 whole entry): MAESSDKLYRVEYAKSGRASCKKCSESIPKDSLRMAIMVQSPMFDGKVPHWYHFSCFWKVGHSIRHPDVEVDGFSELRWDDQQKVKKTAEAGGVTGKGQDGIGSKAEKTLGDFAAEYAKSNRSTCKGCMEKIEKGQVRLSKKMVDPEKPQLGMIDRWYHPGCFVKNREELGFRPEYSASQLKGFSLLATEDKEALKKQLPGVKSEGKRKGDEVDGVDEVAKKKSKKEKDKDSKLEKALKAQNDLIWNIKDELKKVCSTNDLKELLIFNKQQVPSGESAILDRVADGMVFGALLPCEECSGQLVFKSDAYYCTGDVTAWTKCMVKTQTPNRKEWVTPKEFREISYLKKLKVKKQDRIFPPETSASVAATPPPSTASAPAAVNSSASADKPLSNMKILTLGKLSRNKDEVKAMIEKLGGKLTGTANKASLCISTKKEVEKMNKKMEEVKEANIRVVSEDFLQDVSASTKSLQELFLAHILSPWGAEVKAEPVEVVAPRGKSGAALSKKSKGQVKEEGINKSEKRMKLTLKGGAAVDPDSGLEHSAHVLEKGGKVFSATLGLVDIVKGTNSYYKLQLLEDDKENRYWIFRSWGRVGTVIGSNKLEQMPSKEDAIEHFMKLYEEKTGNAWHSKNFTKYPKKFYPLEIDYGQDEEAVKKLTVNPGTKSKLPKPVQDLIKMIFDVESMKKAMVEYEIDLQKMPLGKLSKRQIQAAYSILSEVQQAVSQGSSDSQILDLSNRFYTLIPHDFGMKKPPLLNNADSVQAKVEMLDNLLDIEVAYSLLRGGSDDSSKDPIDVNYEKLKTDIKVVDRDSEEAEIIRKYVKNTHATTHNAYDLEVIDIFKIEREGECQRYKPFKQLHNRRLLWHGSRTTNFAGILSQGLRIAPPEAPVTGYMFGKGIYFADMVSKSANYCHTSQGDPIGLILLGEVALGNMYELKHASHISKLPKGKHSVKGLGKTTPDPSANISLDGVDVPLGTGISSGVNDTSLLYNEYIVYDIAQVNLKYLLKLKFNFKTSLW

Compound	PF50 (Jurkat cell line)	Kd [1]	IC50 (PARP)
COC(=O)c1ccc(C2CCN(Cc3ccc4c(c3)NC(=O)C(C)O4)CC2)cc1 (stereo not drawn) [Compound 214, Methyl 4-(1-((2-methyl-3-oxo-3,4-dihydro-2H-benzo[b][1,4]oxazin-6-yl)methyl)piperidin-4-yl)benzoate]	≦0.9	≤ 10 nM	39.8 to 100 nM
COc1cc(CN2CCN(c3ccc(C(=O)NC(C)C)cc3)CC2)cc2c1OC(C)C(=O)N2 (stereo not drawn) [Compound 164, N-Isopropyl-4-(4-((8-methoxy-2-methyl-3-oxo-3,4-dihydro-2H-benzo[b][1,4]oxazin-6-yl)methyl)piperazin-1-yl)benzamide]	≧10.0	< 31.6 nM	≤ 31.6 nM
CC1Oc2ccc(CN3CCN(c4ccc(C(F)(F)F)cc4)CC3)cc2NC1=O (stereo not drawn) [Compound 222, 2-Methyl-6-((4-(4-(trifluoromethyl)phenyl)piperazin-1-yl)methyl)-2H-benzo[b][1,4]oxazin-3(4H)-one]	1.0-1.9	12.6 to 100 nM	≥ 126 nM
CC(C)NC(=O)c1ccc(N2CCN(Cc3ccc4c(c3)NC(=O)C(C)O4)CC2)nc1 (stereo not drawn) [Compound 238, N-Isopropyl-6-(4-((2-methyl-3-oxo-3,4-dihydro-2H-benzo[b][1,4]oxazin-6-yl)methyl)piperazin-1-yl)nicotinamide]	1.0-1.9	12.6 to 100 nM	39.8 to 100 nM
COc1cc(CN2CCN(c3ccc(C(=O)NC4CC4)cc3)CC2)cc2c1OC(C)C(=O)N2 (stereo not drawn) [Compound 163, N-Cyclopropyl-4-(4-((8-methoxy-2-methyl-3-oxo-3,4-dihydro-2H-benzo[b][1,4]oxazin-6-yl)methyl)piperazin-1-yl)benzamide]	≧10.0	< 31.6 nM	≤ 31.6 nM
COc1cc(CN2CCN(c3ccccc3)CC2)cc2c1OC(C)C(=O)N2 (stereo not drawn) [Compound 156, 8-Methoxy-2-methyl-6-((4-phenylpiperazin-1-yl)methyl)-2H-benzo[b][1,4]oxazin-3(4H)-one]	1.0-1.9	≤ 10 nM	≥ 126 nM
CC1Oc2ccc(CN3CCN(c4ccc(C(=O)NCC5CC5)cn4)CC3)cc2NC1=O (stereo not drawn) [Compound 234, N-(Cyclopropylmethyl)-6-(4-((2-methyl-3-oxo-3,4-dihydro-2H-benzo[b][1,4]oxazin-6-yl)methyl)piperazin-1-yl)nicotinamide]	1.0-1.9	≤ 10 nM	39.8 to 100 nM
CCNC(=O)c1ccc(N2CCN(Cc3cc(F)c4c(c3)NC(=O)C(C)O4)CC2)cc1 (stereo not drawn) [Compound 272, N-Ethyl-4-(4-((8-fluoro-2-methyl-3-oxo-3,4-dihydro-2H-benzo[b][1,4]oxazin-6-yl)methyl)piperazin-1-yl)benzamide]	1.0-1.9	< 31.6 nM	39.8 to 100 nM
CNC(=O)c1ccc(N2CCN(Cc3ccc4c(c3)NC(=O)C(C)O4)CC2)nc1 (stereo not drawn) [Compound 235, N-Methyl-6-(4-((2-methyl-3-oxo-3,4-dihydro-2H-benzo[b][1,4]oxazin-6-yl)methyl)piperazin-1-yl)nicotinamide]	2.0-9.9	≤ 10 nM	≤ 31.6 nM
CCNC(=O)c1ccc(N2CCN(Cc3cc(C)c4c(c3)NC(=O)C(C)O4)CC2)nc1 (stereo not drawn) [Compound 261, 6-(4-((2,8-Dimethyl-3-oxo-3,4-dihydro-2H-benzo[b][1,4]oxazin-6-yl)methyl)piperazin-1-yl)-N-ethylnicotinamide]	2.0-9.9	≤ 10 nM	39.8 to 100 nM
CC1Oc2ccc(CN3CCN(c4ccc(Cl)cn4)CC3)cc2NC1=O (stereo not drawn) [Compound 61, 6-((4-(5-Chloropyridin-2-yl)piperazin-1-yl)methyl)-2-methyl-2H-benzo[b][1,4]oxazin-3(4H)-one]	≦0.9	≤ 10 nM	39.8 to 100 nM
CCNC(=O)c1ccc(N2CCN(Cc3ccc4c(c3)NC(=O)C(C)O4)CC2)cc1 (stereo not drawn) [Compound 224, N-Ethyl-4-(4-((2-methyl-3-oxo-3,4-dihydro-2H-benzo[b][1,4]oxazin-6-yl)methyl)piperazin-1-yl)benzamide]	2.0-9.9	≤ 10 nM	≤ 31.6 nM
COC(=O)c1ccc(N2CCN(Cc3ccc4c(c3)NC(=O)C(C)O4)CC2)nc1 (stereo not drawn) [Compound 232, Methyl 6-(4-((2-methyl-3-oxo-3,4-dihydro-2H-benzo[b][1,4]oxazin-6-yl)methyl)piperazin-1-yl)nicotinate]	1.0-1.9	≤ 10 nM	39.8 to 100 nM
Cc1cc(CN2CCN(c3ccc(C(=O)NC4CC4)cc3)CC2)cc2c1OC(C)C(=O)N2 (stereo not drawn) [Compound 259, N-Cyclopropyl-4-(4-((2,8-dimethyl-3-oxo-3,4-dihydro-2H-benzo[b][1,4]oxazin-6-yl)methyl)piperazin-1-yl)benzamide]	≧10.0	≤ 10 nM	≤ 31.6 nM
CC1Oc2c(F)cc(CN3CCN(c4ccc(C#N)cn4)CC3)cc2NC1=O (stereo not drawn) [Compound 267, 6-(4-((8-fluoro-2-methyl-3-oxo-3,4-dihydro-2H-benzo[b][1,4]oxazin-6-yl)methyl)piperazin-1-yl)nicotinonitrile]	1.0-1.9	≤ 10 nM	≤ 31.6 nM
CCNC(=O)c1ccc(N2CCN(Cc3ccc4c(c3)NC(=O)C(C)O4)CC2)nc1 (stereo not drawn) [Compound 236, N-Ethyl-6-(4-((2-methyl-3-oxo-3,4-dihydro-2H-benzo[b][1,4]oxazin-6-yl)methyl)piperazin-1-yl)nicotinamide]	≦0.9	≤ 10 nM	≤ 31.6 nM
CCC1Oc2ccc(CN3CCN(c4ccccc4O)CC3)cc2NC1=O (stereo not drawn) [Compound 197, 2-Ethyl-6-((4-(2-hydroxyphenyl)piperazin-1-yl)methyl)-2H-benzo[b][1,4]oxazin-3(4H)-one]	1.0-1.9	≤ 10 nM	≥ 126 nM
CC1Oc2ccc(CN3CCN(c4ccc(C#N)cn4)CC3)cc2NC1=O (stereo not drawn) [Compound 231, 6-(4-((2-Methyl-3-oxo-3,4-dihydro-2H-benzo[b][1,4]oxazin-6-yl)methyl)piperazin-1-yl)nicotinonitrile]	1.0-1.9	≤ 10 nM	≤ 31.6 nM
CC1Oc2c(F)cc(CN3CCN(c4ccc(C(=O)NC5CC5)cc4)CC3)cc2NC1=O (stereo not drawn) [Compound 273, N-Cyclopropyl-4-(4-((8-fluoro-2-methyl-3-oxo-3,4-dihydro-2H-benzo[b][1,4]oxazin-6-yl)methyl)piperazin-1-yl)benzamide]	≦0.9	< 31.6 nM	≤ 31.6 nM
CCNC(=O)c1ccc(N2CCN(Cc3cc4c(c(OC)c3)OC(C)C(=O)N4)CC2)cc1 (stereo not drawn) [Compound 162, N-Ethyl-4-(4-((8-methoxy-2-methyl-3-oxo-3,4-dihydro-2H-benzo[b][1,4]oxazin-6-yl)methyl)piperazin-1-yl)benzamide]	2.0-9.9	< 31.6 nM	≤ 31.6 nM
CNC(=O)c1ccc(N2CCN(Cc3cc(F)c4c(c3)NC(=O)C(C)O4)CC2)cc1 (stereo not drawn) [Compound 271, 4-(4-((8-Fluoro-2-methyl-3-oxo-3,4-dihydro-2H-benzo[b][1,4]oxazin-6-yl)methyl)piperazin-1-yl)-N-methylbenzamide]	≦0.9	≤ 10 nM	39.8 to 100 nM
CCOC(=O)c1ccc(N2CCN(Cc3ccc4c(c3)NC(=O)C(C)O4)CC2)cc1 (stereo not drawn) [Compound 217, Ethyl 4-(4-((2-methyl-3-oxo-3,4-dihydro-2H-benzo[b][1,4]oxazin-6-yl)methyl)piperazin-1-yl)benzoate]	≦0.9	≤ 10 nM	≥ 126 nM
CCOC(=O)c1ccc(N2CCN(Cc3ccc4c(c3)NC(=O)C(C)O4)CC2)nc1 (stereo not drawn) [Compound 237, Ethyl 6-(4-((2-methyl-3-oxo-3,4-dihydro-2H-benzo[b][1,4]oxazin-6-yl)methyl)piperazin-1-yl)nicotinate]	≦0.9	≤ 10 nM	≥ 126 nM
CNC(=O)c1ccc(N2CCN(Cc3cc(C)c4c(c3)NC(=O)C(C)O4)CC2)cc1 (stereo not drawn) [Compound 257, 4-(4-((2,8-Dimethyl-3-oxo-3,4-dihydro-2H-benzo[b][1,4]oxazin-6-yl)methyl)piperazin-1-yl)-N-methylbenzamide]	2.0-9.9	≤ 10 nM	≤ 31.6 nM
CC1Oc2ccc(CN3Cc4ccc(NC(=O)C5CC5)cc4C3)cc2NC1=O (stereo not drawn) [Compound 243, N-(2-((2-Methyl-3-oxo-3,4-dihydro-2H-benzo[b][1,4]oxazin-6-yl)methyl)isoindolin-5-yl)cyclopropanecarboxamide]	≦0.9	1260 to 10000 nM	≥ 126 nM
Cc1cc(CN2CCN(c3ccc(C#N)cc3)CC2)cc2c1OC(C)C(=O)N2 (stereo not drawn) [Compound 253, 4-(4-((2,8-Dimethyl-3-oxo-3,4-dihydro-2H-benzo[b][1,4]oxazin-6-yl)methyl)piperazin-1-yl)benzonitrile]	2.0-9.9	≤ 10 nM	≤ 31.6 nM
CC(C)NC(=O)c1ccc(N2CCN(Cc3ccc4c(c3)NC(=O)C(C)O4)CC2)cc1 (stereo not drawn) [Compound 225, N-Isopropyl-4-(4-((2-methyl-3-oxo-3,4-dihydro-2H-benzo[b][1,4]oxazin-6-yl)methyl)piperazin-1-yl)benzamide]	≦0.9	≤ 10 nM	≤ 31.6 nM
